Measured values published in patent publication US20040235070A1, “Immune reactivity to expressed activated oncogenes for diagnosis and treatment of malignancy” (Washington Research Foundation, priority 1990, published 2004).

Columns and labels:
[1] = tested on: lymph node and splenic lymphocytes from immunized mice; test: Proliferation of lymph node and spleen lymphocytes from mice immunized with bcr3-abl2 peptide; assay type: cell-based; conditions: BALB/c mice immunized with bcr3-abl2 12 mer peptide
Description: Ten days following immunization with peptide, draining lymph node cells (Panel A) and spleen cells (Panel B) were cultured alone or with bcr3-abl2 12 mer peptide, or bcr2-abl2 12 mer peptide, or ras-c12 12 mer peptide at 25 μg/ml, and assayed after 96 hours for proliferation by [^3H] thymidine uptake. The data represent the mean of triplicate determinations of the c.p.m.+S.D.
Mice (female BALB/c and C57BL/6 (B6), 6 to 8 weeks old; Jackson Laboratories, Bar Harbor, Me.) were inoculated twice at 2-week intervals by subcutaneous injection with Complete Freund's Adjuvant (Sigma Chemical Co., St. Louis, Mo.) alone or emulsified with bcr3-abl2 peptide (100 μg). Ten days after the final immunization, single cell suspensions of draining lymph nodes and spleens were prepared in medium consisting of 1:1 mixture of RPMI 1640 (Gibco Laboratories, Inc., Grand Island, N.Y.) and EHAA (Biofluids, Inc., Rockville, Md.) with 2.5×10^−5 M 2-ME, 200 U/ml penicillin, 200 U/ml streptomycin, 10 mM L-glutamine and 10% fetal calf serum. For proliferative assays, lymphocytes were cultured in 96-well plates at 2×10^5 cells per well with 4×10^5 irradiated syngeneic spleen cells (3,000 rad) and designated (total volume of 200 μl per well). Plates were incubated in a humidified atmosphere under 5% CO2 tension at 37° C. for 72 hours, and then pulsed for 18 hours with […] of [^3H]-thumidine per well. […]

[2] = tested on: bcr3-abl2 peptide-specific CD4^+ T cell clones; test: Proliferative assay of bcr3-abl2 peptide-specific CD4+ T cell clones ([3H] thymidine incorporation); assay type: cell-based, BALB/c mice; conditions: for [^3H] Thymidine Incorporation (c.p.m.) after Stimulation / [^3H] Thymidine Incorporation (c.p.m.): 96-hour culture; for [^3H] Thymidine Incorporation (c.p.m.): Table 2; for [^3H] Thymidine Incorporation (c.p.m.) after Stimulation with bcr3-abl2 peptide (5 μg/ml): peptides of varying lengths 5 μg/ml, 96 hour culture, Table 4
Description: Mice (female BALB/c and C57BL/6 (B6), 6 to 8 weeks old; Jackson Laboratories, Bar Harbor, Me.) were inoculated twice at 2-week intervals by subcutaneous injection with Complete Freund's Adjuvant (Sigma Chemical Co., St. Louis, Mo.) alone or emulsified with bcr3-abl2 peptide (100 μg). Ten days after the final immunization, single cell suspensions of draining lymph nodes and spleens were prepared in medium consisting of 1:1 mixture of RPMI 1640 (Gibco Laboratories, Inc., Grand Island, N.Y.) and EHAA (Biofluids, Inc., Rockville, Md.) with 2.5×10^−5 M 2-ME, 200 U/ml penicillin, 200 U/ml streptomycin, 10 mM L-glutamine and 10% fetal calf serum. For proliferative assays, lymphocytes were cultured in 96-well plates at 2×10^5 cells per well with 4×10^5 irradiated syngeneic spleen cells (3,000 rad) and designated (total volume of 200 μl per well). Plates were incubated in a humidified atmosphere under 5% CO2 tension at 37° C. for 72 hours, and then pulsed for 18 hours with […] of [^3H]-thumidine per well. Proliferative responses of cloned T cells utilized 2×10^4 cells per well with 5×10^5 irradiated syngeneic spleen cells (3,000 rad) and designated peptide.
Lymphocytes from the draining lymph nodes of mice immunized with bcr3-abl2 peptide were cultured in 24-well culture plates at 4×10^6 cells per well with 2×10^6 irradiated syngeneic spleen cells and bcr3-abl2 peptide at 25 μg/ml (total volume 2 ml). The plates were cultured in a humidified atmosphere under 5% CO2 tension at 37° C. for 5 days then split 1:2. After 10 days, lymphocytes were restimulated at 1×10^6 lymphocytes per well in 24-well culture plates with 5×10^6 irradiated syngeneic spleen cells and peptide (25 μg/ml). Two days after the second in vitro stimulation, T cells were-plated at 0.5 cells per well in 96-well flat-bottom plates with 1×10^6 irradiated syngeneic spleen cells and rIL-2 (50 U/ml). Derived T cell clones were maintained by periodic stimulation with peptide (1 μg/ml) plus irradiated syngeneic spleen cells followed by expansion with rIL-2 (10 U/ml) every 2 weeks. T cell clones were stained with FITC-conjugated anti-Thy 1.2 (1%), or FITC-conjugated anti-Lyt2 (2%), or PE-conjugated anti-L3T4 (3%) mAbs (Becton Dickinson Immunocytochemistry Systems, Mountain View, Calif.) at 4° C. for 45 minutes.

G F K Q S S K A L Q R P (GFKQSSKALQRP) [bcr3-abl2 12 mer peptide, 12 amino acid peptide identical to the joining region of p210 bcr-abl (bcr exon 3 fused to c-abl exon 2)]
proliferation in vitro of lymph node and splenic lymphocytes [1]: proliferated in vitro | [^3H] Thymidine Incorporation (c.p.m.) after Stimulation ([2]; T cell clone 1D2, peptide 0.04 μg/ml): 16,423 c.p.m. | [^3H] Thymidine Incorporation (c.p.m.) after Stimulation ([2]; T cell clone 1D2, peptide 0.2 μg/ml): 91,251 c.p.m. | [^3H] Thymidine Incorporation (c.p.m.) after Stimulation ([2]; T cell clone 1D2, peptide 1 μg/ml): 183,229 c.p.m. | [^3H] Thymidine Incorporation (c.p.m.) ([2]; T cell clone 1D2, peptide 5 μg/ml): 274,701 c.p.m. | [^3H] Thymidine Incorporation (c.p.m.) after Stimulation ([2]; T cell clone 1D2, peptide 5 μg/ml, Table 3): 259,018 c.p.m. | [^3H] Thymidine Incorporation (c.p.m.) after Stimulation ([2]; T cell clone 1D2, peptide 25 μg/ml): 66,329 c.p.m. | [^3H] Thymidine Incorporation (c.p.m.) after Stimulation with bcr3-abl2 peptide (5 μg/ml) ([2]; T cell clone 1D2): 120,049 c.p.m. | [^3H] Thymidine Incorporation (c.p.m.) after Stimulation ([2]; T cell clone 2B12, peptide 0.04 μg/ml): 4,132 c.p.m. | [^3H] Thymidine Incorporation (c.p.m.) after Stimulation ([2]; T cell clone 2B12, peptide 0.2 μg/ml): 71,651 c.p.m. | [^3H] Thymidine Incorporation (c.p.m.) after Stimulation ([2]; T cell clone 2B12, peptide 1 μg/ml): 213,089 c.p.m. | [^3H] Thymidine Incorporation (c.p.m.) ([2]; T cell clone 2B12, peptide 5 μg/ml): 109,319 c.p.m. | [^3H] Thymidine Incorporation (c.p.m.) after Stimulation ([2]; T cell clone 2B12, peptide 5 μg/ml, Table 3): 229,010 c.p.m. | [^3H] Thymidine Incorporation (c.p.m.) after Stimulation ([2]; T cell clone 2B12, peptide 25 μg/ml): 132,620 c.p.m. | [^3H] Thymidine Incorporation (c.p.m.) after Stimulation ([2]; T cell clone 2D4, peptide 0.04 μg/ml): 12,599 c.p.m. | [^3H] Thymidine Incorporation (c.p.m.) after Stimulation ([2]; T cell clone 2D4, peptide 0.2 μg/ml): 150,711 c.p.m. | [^3H] Thymidine Incorporation (c.p.m.) after Stimulation ([2]; T cell clone 2D4, peptide 1 μg/ml): 256,606 c.p.m. | [^3H] Thymidine Incorporation (c.p.m.) ([2]; T cell clone 2D4, peptide 5 μg/ml): 262,799 c.p.m. | [^3H] Thymidine Incorporation (c.p.m.) after Stimulation ([2]; T cell clone 2D4, peptide 5 μg/ml, Table 3): 182,266 c.p.m. | [^3H] Thymidine Incorporation (c.p.m.) after Stimulation ([2]; T cell clone 2D4, peptide 25 μg/ml): 42,623 c.p.m. | [^3H] Thymidine Incorporation (c.p.m.) after Stimulation ([2]; T cell clone 2E3, peptide 0.04 μg/ml): 1,475 c.p.m. | [^3H] Thymidine Incorporation (c.p.m.) after Stimulation ([2]; T cell clone 2E3, peptide 0.2 μg/ml): 93,921 c.p.m. | [^3H] Thymidine Incorporation (c.p.m.) after Stimulation ([2]; T cell clone 2E3, peptide 1 μg/ml): 273,273 c.p.m. | [^3H] Thymidine Incorporation (c.p.m.) ([2]; T cell clone 2E3, peptide 5 μg/ml): 293,219 c.p.m. | [^3H] Thymidine Incorporation (c.p.m.) after Stimulation ([2]; T cell clone 2E3, peptide 5 μg/ml, Table 3): 407,729 c.p.m. | [^3H] Thymidine Incorporation (c.p.m.) after Stimulation ([2]; T cell clone 2E3, peptide 25 μg/ml): 358,253 c.p.m. | [^3H] Thymidine Incorporation (c.p.m.) after Stimulation ([2]; T cell clone 2E10, peptide 0.04 μg/ml): 26,195 c.p.m. | [^3H] Thymidine Incorporation (c.p.m.) after Stimulation ([2]; T cell clone 2E10, peptide 0.2 μg/ml): 235,103 c.p.m. | [^3H] Thymidine Incorporation (c.p.m.) after Stimulation ([2]; T cell clone 2E10, peptide 1 μg/ml): 333,056 c.p.m. | [^3H] Thymidine Incorporation (c.p.m.) ([2]; T cell clone 2E10, peptide 5 μg/ml): 242,633 c.p.m. | [^3H] Thymidine Incorporation (c.p.m.) after Stimulation ([2]; T cell clone 2E10, peptide 5 μg/ml, Table 3): 312,783 c.p.m. | [^3H] Thymidine Incorporation (c.p.m.) after Stimulation ([2]; T cell clone 2E10, peptide 25 μg/ml): 131,643 c.p.m. | [^3H] Thymidine Incorporation (c.p.m.) after Stimulation with bcr3-abl2 peptide (5 μg/ml) ([2]; T cell clone 2E10): 96,525 c.p.m. | [^3H] Thymidine Incorporation (c.p.m.) after Stimulation ([2]; T cell clone 3B7, peptide 0.04 μg/ml): 60,957 c.p.m. | [^3H] Thymidine Incorporation (c.p.m.) after Stimulation ([2]; T cell clone 3B7, peptide 0.2 μg/ml): 56,967 c.p.m. | [^3H] Thymidine Incorporation (c.p.m.) after Stimulation ([2]; T cell clone 3B7, peptide 1 μg/ml): 111,212 c.p.m. | [^3H] Thymidine Incorporation (c.p.m.) ([2]; T cell clone 3B7, peptide 5 μg/ml): 64,935 c.p.m. | [^3H] Thymidine Incorporation (c.p.m.) after Stimulation ([2]; T cell clone 3B7, peptide 5 μg/ml, Table 3): 149,640 c.p.m. | [^3H] Thymidine Incorporation (c.p.m.) after Stimulation ([2]; T cell clone 3B7, peptide 25 μg/ml): 53,441 c.p.m. | [^3H] Thymidine Incorporation (c.p.m.) after Stimulation ([2]; T cell clone 3E11, peptide 0.04 μg/ml): 91,240 c.p.m. | [^3H] Thymidine Incorporation (c.p.m.) after Stimulation ([2]; T cell clone 3E11, peptide 0.2 μg/ml): 135,985 c.p.m. | [^3H] Thymidine Incorporation (c.p.m.) after Stimulation ([2]; T cell clone 3E11, peptide 1 μg/ml): 189,843 c.p.m. | [^3H] Thymidine Incorporation (c.p.m.) ([2]; T cell clone 3E11, peptide 5 μg/ml): 263,425 c.p.m. | [^3H] Thymidine Incorporation (c.p.m.) after Stimulation ([2]; T cell clone 3E11, peptide 5 μg/ml, Table 3): 130,633 c.p.m. | [^3H] Thymidine Incorporation (c.p.m.) after Stimulation ([2]; T cell clone 3E11, peptide 25 μg/ml): 40,755 c.p.m. | [^3H] Thymidine Incorporation (c.p.m.) after Stimulation ([2]; T cell clone 3G2, peptide 0.04 μg/ml): 9,440 c.p.m. | [^3H] Thymidine Incorporation (c.p.m.) after Stimulation ([2]; T cell clone 3G2, peptide 0.2 μg/ml): 49,602 c.p.m. | [^3H] Thymidine Incorporation (c.p.m.) after Stimulation ([2]; T cell clone 3G2, peptide 1 μg/ml): 150,799 c.p.m. | [^3H] Thymidine Incorporation (c.p.m.) ([2]; T cell clone 3G2, peptide 5 μg/ml): 30,846 c.p.m. | [^3H] Thymidine Incorporation (c.p.m.) after Stimulation ([2]; T cell clone 3G2, peptide 5 μg/ml, Table 3): 168,387 c.p.m. | [^3H] Thymidine Incorporation (c.p.m.) after Stimulation ([2]; T cell clone 3G2, peptide 25 μg/ml): 132,024 c.p.m. | [^3H] Thymidine Incorporation (c.p.m.) after Stimulation ([2]; T cell clone 3G3, peptide 0.04 μg/ml): 11,510 c.p.m. | [^3H] Thymidine Incorporation (c.p.m.) after Stimulation ([2]; T cell clone 3G3, peptide 0.2 μg/ml): 18,403 c.p.m. | [^3H] Thymidine Incorporation (c.p.m.) after Stimulation ([2]; T cell clone 3G3, peptide 1 μg/ml): 93,219 c.p.m. | [^3H] Thymidine Incorporation (c.p.m.) ([2]; T cell clone 3G3, peptide 5 μg/ml): 61,521 c.p.m. | [^3H] Thymidine Incorporation (c.p.m.) after Stimulation ([2]; T cell clone 3G3, peptide 5 μg/ml, Table 3): 143,670 c.p.m. | [^3H] Thymidine Incorporation (c.p.m.) after Stimulation ([2]; T cell clone 3G3, peptide 25 μg/ml): 101,280 c.p.m. | response of bcr3-abl2 peptide-specific T cell clones (in words) ([2]; proliferative assay with irradiated syngeneic APC): responded specifically | lowest concentration to which clones responded vigorously ([2]; some clones, lowest concentration tested): 0.04 µg/mL
